Article doi:10.1101/2022.03.02.482641v1 (biorxiv, 2022)
pEC50, pIC50: −log10 of the molar value.

Tests used:
Format in all cases: biochemical
[1] = target: T1, zfSARM1 (zebrafish SARM1, zfSARM1 w.t.) (Danio rerio, UniProt F1QWA8); experiment: NADase kinetics, HPLC, substrate inhibition fit; conditions: apparent substrate inhibition by NAD+
T1 sequence (F1QWA8 22-713): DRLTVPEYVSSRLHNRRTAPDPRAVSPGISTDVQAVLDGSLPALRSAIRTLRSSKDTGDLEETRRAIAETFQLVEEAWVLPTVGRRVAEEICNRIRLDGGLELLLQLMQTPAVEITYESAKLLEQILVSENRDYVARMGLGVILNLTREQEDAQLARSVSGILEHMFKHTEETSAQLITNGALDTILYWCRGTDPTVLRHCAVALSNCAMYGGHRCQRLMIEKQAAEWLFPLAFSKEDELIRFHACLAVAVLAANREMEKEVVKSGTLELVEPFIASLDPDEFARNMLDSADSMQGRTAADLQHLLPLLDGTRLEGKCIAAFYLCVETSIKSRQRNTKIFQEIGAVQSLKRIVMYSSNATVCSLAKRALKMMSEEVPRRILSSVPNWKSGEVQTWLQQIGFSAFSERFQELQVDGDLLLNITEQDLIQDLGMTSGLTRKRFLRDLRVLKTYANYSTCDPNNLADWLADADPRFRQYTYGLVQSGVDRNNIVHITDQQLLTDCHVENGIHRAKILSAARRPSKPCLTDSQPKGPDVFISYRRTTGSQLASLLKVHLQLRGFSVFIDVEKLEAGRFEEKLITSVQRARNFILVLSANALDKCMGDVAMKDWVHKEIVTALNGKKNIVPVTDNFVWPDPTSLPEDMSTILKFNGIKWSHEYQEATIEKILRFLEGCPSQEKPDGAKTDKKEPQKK

[2] = target: T2, hSARM1 (hSARM1 w.t., near-intact, 26ERL...GPT724) (Homo sapiens, UniProt Q6SZW1); experiment: NADase kinetics, HPLC, substrate inhibition fit; conditions: apparent substrate inhibition by NAD+
T2 sequence (Q6SZW1 26-724): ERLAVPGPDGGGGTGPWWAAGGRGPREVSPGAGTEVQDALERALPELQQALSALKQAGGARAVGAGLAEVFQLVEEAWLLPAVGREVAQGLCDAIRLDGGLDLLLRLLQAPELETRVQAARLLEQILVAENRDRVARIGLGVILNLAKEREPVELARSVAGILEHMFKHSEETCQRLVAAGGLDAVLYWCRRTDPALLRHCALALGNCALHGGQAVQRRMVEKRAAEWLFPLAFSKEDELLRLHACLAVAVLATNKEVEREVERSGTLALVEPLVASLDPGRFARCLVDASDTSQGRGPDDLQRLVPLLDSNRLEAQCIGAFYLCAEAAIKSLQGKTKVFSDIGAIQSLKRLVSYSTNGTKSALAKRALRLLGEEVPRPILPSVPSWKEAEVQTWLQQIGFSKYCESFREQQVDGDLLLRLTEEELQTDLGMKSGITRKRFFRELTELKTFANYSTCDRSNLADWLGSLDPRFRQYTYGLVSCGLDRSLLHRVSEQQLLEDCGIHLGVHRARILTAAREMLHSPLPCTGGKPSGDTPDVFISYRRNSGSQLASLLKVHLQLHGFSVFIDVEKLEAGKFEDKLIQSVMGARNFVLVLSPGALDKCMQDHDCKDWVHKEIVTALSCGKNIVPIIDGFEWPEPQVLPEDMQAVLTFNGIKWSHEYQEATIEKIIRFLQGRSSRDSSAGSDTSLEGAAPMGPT

[3] = target: T1, zfSARM1 (zebrafish SARM1, zfSARM1 w.t.); experiment: HPLC of ADPR formation
[4] = target: T2, hSARM1 (hSARM1 w.t., near-intact, 26ERL...GPT724); experiment: HPLC of ADPR formation

| Compound | Ki [1] [µM] | Ki [2] [µM] | pEC50 [3] | pIC50 [4] |
| --- | --- | --- | --- | --- |
| NC(=O)c1ccc[n+]([C@@H]2O[C@H](COP(=O)([O-])OP(=O)(O)OC[C@H]3O[C@@H](n4cnc5c(N)ncnc54)[C@H](O)[C@@H]3O)[C@@H](O)[C@H]2O)c1 [NAD+] | 1350 | 727 | – | – |
| O=c1[nH]sc2ccccc12 [TK222] | – | – | – | 5.49 |

Continued by rising pIC50 [4], values first:

| Ki [1] [µM] | Ki [2] [µM] | pEC50 [3] | pIC50 [4] | Compound |
| --- | --- | --- | --- | --- |
| – | – | – | 5.34 | Cn1c(=O)c(I)c(O)c2ccccc21 [TK210] |
| – | – | 5.57 | 5.54 | N#Cc1c(O)nsc1Nc1ccccc1C(F)(F)F [TK138] |
| – | – | – | 5.74 | CCOC(=O)Cn1sc2nc(C)cc(C)c2c1=O [TK142] |
